Legend:
Assay type in all cases: in vivo
[1] = test system: uterine bleeding; assay: Case: person on anticoagulant therapy with menorrhagia, oral treatment
Protocol: A moderate smoker with a BMI at 32 is treated with anticoagulant therapy for an episode of pulmonary embolism resulting from a deep venous thrombosis in a leg. Despite effort to adapt their anticoagulation therapy, their menstruations are heavy (menorrhagia) and last for up to two weeks. Their Hb is at 9.2 gr/dL. […] Their thrombo-embolic condition precludes any therapy with oestrogens or progestins. Given, the absence of negative metabolic and pro-thrombotic effect of SPRM, they are orally administered 25 mg/day of Proellex® (CDB-4124). […] Their Hb progressively returned to normal (>12 gd/dL).

[2] = test system: uterine bleeding; assay: Case: person with stage III Hodgkin disease, prevention of uterine bleeding during chemotherapy and irradiation; settings: 10 mg/day orally, started before chemotherapy (MOPP) and irradiation
Description: A person is consulting for pneumonia. They report a recent history of night sweats and weight loss. […] The diagnosis is a stage III of Hodgkin disease. Their condition indicates chemotherapy (MOPP) and extended irradiation. The main risk of the proposed therapy is bone marrow suppression. This is life-threatening by exposing the patient to severe infection and septicemia, but it is also associated with severe thrombopenia and diffuse bleeding including uterine bleeding. In order to prevent uterine bleeding, before initiating specific treatment for their Hodgkin disease, they are orally administered 10 mg/day of CDB-2914. Following initiation of chemotherapy and irradiation, severe bone marrow suppression is recorded and the patient is admitted in aseptic unit. […] CBD2914 administration is maintained as long as coagulation parameters are not normalized.

[3] = test system: uterine bleeding; assay: Case: person with Acute Lymphotic Leukemia, thrombocytopenia and uterine bleeding, oral treatment
Protocol: A post-pubertal person is consulting for fever, infections, uterine bleeding, petechia and dyspnea. Blood test identifies anemia (Hb 7.8 g/dL), normal leucocyte count (WBC 8657 cells/μL) and thrombocytopenia (platelets: 13.476 cells/mm^3). […] A diagnosis of Acute Lymphotic Leukemia is confirmed. The patient undergoes blood and platelet transfusion to correct for anemia and coagulation disorder. On the same day, they start taking orally 10 mg/day of CDB-2914. […] On that day, Hb is 9.9 g/dL; WBC 6345 cells/μL; and platelet count is 42 000 cells/mm^3. They continue taking orally 10 mg/day of CDB2914 for controlling abnormal uterine bleeding. […] After 3 months, they achieve remission, Hb is 13.1 g/dL; leucocyte count is normal, platelet count is 176 000 cells/mm^3. Bone marrow biopsy confirmed normalization.

SMILES: COCC(=O)[C@@]1(OC(C)=O)CC[C@H]2[C@@H]3CCC4=CC(=O)CCC4=C3[C@@H](c3ccc(N(C)C)cc3)C[C@@]21C [Proellex, 17[alpha]-acetoxy-21-methoxy-11β-[4-N,N-dimethylaminophenyl]-19-norpregna-4,9-diene-3,20-dione]
- uterine bleeding after start of treatment ([1]; 25 mg/day orally): stopped after a few days
- uterine bleeding during the 12 weeks of anticoagulation therapy ([1]; 25 mg/day orally): remain amenorrheic
- Hb ([1]; 25 mg/day orally, 9.2 gr/dL before treatment, progressively returned to normal): > 12 gd/dL
- menstruations after treatment is stopped ([1]; after anticoagulation therapy is stopped): resumed normal menstruations

SMILES: CC(=O)O[C@]1(C(C)=O)CC[C@H]2[C@@H]3CCC4=CC(=O)CCC4=C3[C@@H](c3ccc(N(C)C)cc3)C[C@@]21C [CDB-2914]
- uterine bleeding despite severe thrombopenia [2]: remains in amenorrhea
- uterine bleeding during continued treatment ([3]; 10 mg/day orally, 3 months, several episodes of thrombopenia and chemotherapy cycles, except for a few spotting): remains in amenorrhea
- time following initiation of treatment until uterine bleeding is stopped ([3]; 10 mg/day orally, blood and platelet transfusion on the same day): 5 days
- menstrual bleeding after treatment is stopped ([3]; after 3 months, remission): regular, normal menstrual bleeding are restored

From patent US8569274B2, “Progesterone antagonist and selective progesterone modulator in the treatment of excessive uterine bleeding” (Preglem S.A., priority 2007, dated 2013)
